Where two headings read alike, the source gives them in different places.
What was measured:
[1] = tested on: MCF-7 (estrogen receptor positive breast cancer cells); experiment: Anti-proliferation activity against MCF-7 cells (MTS/PMS); type: cell-based
Description: (§1) Upon completion of synthesis of library of compounds in Examples 23 and 24, the compounds were evaluated for anti-proliferative activity against SkBr3 (Her2 overexpressing breast cancer cells), MCF-7 (estrogen receptor positive breast cancer cells), HCT-116 (colon cancer cells characterized by wild-type p53), PL45 (pancreatic cancer cells), LNCaP (androgen sensitive prostate cancer cells) and PC-3 (androgen independent prostate cancer cells) cell lines.
(§2) Cells were maintained in a 1:1 mixture of Advanced DMEM/F12 (Gibco) supplemented with non-essential amino acids, L-glutamine (2 mM), streptomycin (500 ng/mL), penicillin (100 units/mL), and 10% FBS. Cells were grown to confluence in a humidified atmosphere (37° C., 5% CO2), seeded (2000/well, 100 μl) in 96-well plates, and allowed to attach overnight. Compound or GDA at varying concentrations in DMSO (1% DMSO final concentration) was added, and cells were returned to the incubator for 72 hours. At 72 hours, the number of viable cells was determined using an MTS/PMS cell proliferation kit (Promega) per the manufacturer's instructions. Cells incubated in 1% DMSO were used at 100% proliferation, and values were adjusted accordingly. IC50 values were calculated from separate experiments performed in triplicate using GraphPad Prism.
as §2, with “μg/mL),” for “ng/mL),”, “μL)” for “μl)”

[2] = tested on: SkBr3 (Her2 overexpressing breast cancer cells); experiment: Anti-proliferation activity against SkBr3 cells (MTS/PMS); type: cell-based; conditions: read-out: IC50, SKBr3
Description: as §1, §2
as §2, with “μg/mL),” for “ng/mL),”, “μL)” for “μl)”

[3] = Homo sapiens, MCF7, Table 18, modified furanose or pyranose noviose replacements, read-out: IC50, MCF7
[4] = Homo sapiens, SK-BR-3, Table 18, modified furanose or pyranose noviose replacements
[5] = Table 19, 7-oxyalkylamino and 7-oxypiperidinyl analogues
[6] = Table 19, 7-oxyalkylamino and 7-oxypiperidinyl analogues, read-out: IC50, MCF-7
[7] = Homo sapiens, SK-BR-3, Table 19, 7-oxyalkylamino and 7-oxypiperidinyl analogues
[8] = Homo sapiens, MCF7, Table 19, 7-oxyalkylamino and 7-oxypiperidinyl analogues, read-out: IC50, MCF-7
[9] = Homo sapiens, MCF7, Table 21, substituted indole-2-carboxamide analogues with noviose replacements, read-out: IC50, MCF-7
[10] = Homo sapiens, SK-BR-3, Table 21, substituted indole-2-carboxamide analogues with noviose replacements

For `CC(C)=CCc1cc(C(=O)Nc2cc3ccc(O[C@H]4OCC[C@@H](O)[C@H]4O)c(C)c3oc2=O)ccc1O` [16a, KU-425, N-(7-((2R,3R,4R)-3,4-dihydroxytetrahydro-2H-pyran-2-yloxy)-8-methyl-2-oxo-2H-chromen-3-yl)-4-hydroxy-3-(3-methylbut-2-enyl)benzamide], the IC50 [1, 3] was 10040 ± 30 nM and the IC50 [2, 4] was 10680 ± 50 nM.

For `CC(C)=CCc1cc(C(=O)Nc2cc3ccc(O[C@@H]4OCC[C@@H](O)[C@H]4O)c(C)c3oc2=O)ccc1O` [16b, KU-426, N-(7-((2S,3R,4R)-3,4-dihydroxytetrahydro-2H-pyran-2-yloxy)-8-methyl-2-oxo-2H-chromen-3-yl)-4-hydroxy-3-(3-methylbut-2-enyl)benzamide], the IC50 [1, 3] was 13300 ± 210 nM and the IC50 [2, 4] was 6960 ± 60 nM.

Work on `CC(C)=CCc1cc(C(=O)Nc2cc3ccc(O[C@H]4OCCC[C@H]4O)c(C)c3oc2=O)ccc1O` [17a, KU-427, 4-Hydroxy-N-(7-((2R,3R)-3-hydroxytetrahydro-2H-pyran-2-yloxy)-8-methyl-2-oxo-2H-chromen-3-yl)-3-(3-methylbut-2-enyl)benzamide] yielded an IC50 [1, 3] of 6450 ± 130 nM and an IC50 [2, 4] of 7870 ± 40 nM.

Compound `CC(C)=CCc1cc(C(=O)Nc2cc3ccc(O[C@@H]4OCCC[C@H]4O)c(C)c3oc2=O)ccc1O` [17b, KU-428, 4-Hydroxy-N-(7-((2S,3R)-3-hydroxytetrahydro-2H-pyran-2-yloxy)-8-methyl-2-oxo-2H-chromen-3-yl)-3-(3-methylbut-2-enyl)benzamide] has an IC50 [1, 3] of 10200 ± 210 nM and an IC50 [2, 4] of 30000 ± 2070 nM.

`CC(C)=CCc1cc(C(=O)Nc2cc3ccc(O[C@H]4C[C@H](O)CCO4)c(C)c3oc2=O)ccc1O` [18a, KU-429, 4-Hydroxy-N-(7-((2S,4R)-4-hydroxytetrahydro-2H-pyran-2-yloxy)-8-methyl-2-oxo-2H-chromen-3-yl)-3-(3-methylbut-2-enyl)benzamide] was tested, and the IC50 [1, 3] was 1340 ± 180 nM and the IC50 [2, 4] was 5070 ± 230 nM.

Work on `CC(=O)Oc1ccc(C(=O)Nc2cc3ccc(O[C@@H]4OC[C@H](O)[C@@H]4O)c(C)c3oc2=O)cc1CC=C(C)C` [19, KU-431, 4-(7-((2S,3S,4S)-3,4-Dihydroxytetrahydrofuran-2-yloxy)-8-methyl-2-oxo-2H-chromen-3-ylcarbamoyl)-2-(3-methylbut-2-enyl)phenyl acetate] yielded an IC50 [1, 3] of 14300 ± 400 nM and an IC50 [2, 4] of 14400 ± 520 nM.

For `CC(=O)Oc1ccc(C(=O)Nc2cc3ccc(O[C@H]4C[C@@H](O)CO4)c(C)c3oc2=O)cc1CC=C(C)C` [20a, KU-432, 4-(7-((2S,4R)-4-Hydroxytetrahydrofuran-2-yloxy)-8-methyl-2-oxo-2H-chromen-3-ylcarbamoyl)-2-(3-methylbut-2-enyl)phenyl acetate], the IC50 [1, 3] was over 100000 nM and the IC50 [2, 4] was 22200 ± 940 nM.

For `CC(=O)Oc1ccc(C(=O)Nc2cc3ccc(O[C@@H]4C[C@@H](O)CO4)c(C)c3oc2=O)cc1CC=C(C)C` [20b, KU-433, 4-(7-((2R,4R)-4-Hydroxytetrahydrofuran-2-yloxy)-8-methyl-2-oxo-2H-chromen-3-ylcarbamoyl)-2-(3-methylbut-2-enyl)phenyl acetate], the IC50 [1, 3] was 22500 ± 400 nM and the IC50 [2, 4] was 21500 ± 2280 nM.

With `CC(=O)Oc1ccc(C(=O)Nc2cc3ccc(OC4CCN(C)CC4)c(C)c3oc2=O)cc1CC=C(C)C` [29a, KU-397, 4-(8-Methyl-7-(1-methylpiperidin-4-yloxy)-2-oxo-2H-chromen-3-ylcarbamoyl)-2-(3-methylbut-2-enyl)phenyl acetate] the IC50 [2, 5] was 1180 ± 200 nM.

Work on `CC(=O)Oc1ccc(C(=O)Nc2cc3ccc(OC4CCCN(C)C4)c(C)c3oc2=O)cc1CC=C(C)C` (stereo not shown) [29c, KU-417, 4-(8-Methyl-7-(1-methylpiperidin-3-yloxy)-2-oxo-2H-chromen-3-ylcarbamoyl)-2-(3-methylbut-2-enyl)phenyl acetate] yielded an IC50 [1, 6] of 1420 ± 20 nM and an IC50 [2, 5] of 1570 ± 50 nM.

`CC(=O)Oc1ccc(C(=O)Nc2cc3ccc(OCCN(C)C)c(C)c3oc2=O)cc1CC=C(C)C` [29e, KU-421, 4-(7-(2-(Dimethylamino)ethoxy)-8-methyl-2-oxo-2H-chromen-3-ylcarbamoyl)-2-(3-methylbut-2-enyl)phenyl acetate] gave an IC50 [1, 6] of 1320 nM and an IC50 [2, 5] of 4760 ± 520 nM.

`CC(=O)Oc1ccc(C(=O)Nc2cc3ccc(OCCCN(C)C)c(C)c3oc2=O)cc1CC=C(C)C` [29f, KU-406, 4-(7-(3-(Dimethylamino)propoxy)-8-methyl-2-oxo-2H-chromen-3-ylcarbamoyl)-2-(3-methylbut-2-enyl)phenyl acetate] was tested, and the IC50 [1, 6] was 460 ± 190 nM and the IC50 [2, 5] was 1180 ± 30 nM.

Work on `CC(=O)Oc1ccc(C(=O)Nc2cc3ccc(OC4CCNCC4)c(C)c3oc2=O)cc1CC=C(C)C` [30b, KU-415, 4-(8-methyl-2-oxo-7-(piperidin-4-yloxy)-2H-chromen-3-ylcarbamoyl)-2-(3-methylbut-2-enyl)phenyl acetate] yielded an IC50 [1, 6] of 770 ± 270 nM and an IC50 [2, 5] of 1530 ± 140 nM.

`CC(=O)Oc1ccc(C(=O)Nc2cc3ccc(OC4CCCNC4)c(C)c3oc2=O)cc1CC=C(C)C` (stereo not shown) [30d, KU-419, 4-(8-methyl-2-oxo-7-(piperidin-3-yloxy)-2H-chromen-3-ylcarbamoyl)-2-(3-methylbut-2-enyl)phenyl acetate] was tested, and the IC50 [1, 6] was 1230 nM and the IC50 [2, 5] was 1540 ± 110 nM.

`CNCCOc1ccc2cc(NC(=O)c3ccc(OC(C)=O)c(CC=C(C)C)c3)c(=O)oc2c1C` [30g, KU-423, 4-(8-methyl-7-(2-(methylamino)ethoxy)-2-oxo-2H-chromen-3-ylcarbamoyl)-2-(3-methylbut-2-enyl)phenyl acetate] gave an IC50 [1, 6] of 910 ± 210 nM and an IC50 [2, 5] of 2080 ± 130 nM.

`CC(C)=CCc1cc(C(=O)Nc2cc3ccc(OC4CCN(C)CC4)c(C)c3oc2=O)ccc1O` [31a, KU-398, 4-Hydroxy-N-(8-methyl-7-(1-methylpiperidin-4-yloxy)-2-oxo-2H-chromen-3-yl)-3-(3-methylbut-2-enyl)benzamide] gave an IC50 [2, 7] of 1090 ± 100 nM.

Work on `CC(C)=CCc1cc(C(=O)Nc2cc3ccc(OC4CCNCC4)c(C)c3oc2=O)ccc1O` [31b, KU-416, 4-Hydroxy-N-(8-methyl-2-oxo-7-(piperidin-4-yloxy)-2H-chromen-3-yl)-3-(3-methylbut-2-enyl)benzamide] yielded an IC50 [1, 8] of 470 ± 100 nM and an IC50 [2, 7] of 850 ± 90 nM.

In the case of `CC(C)=CCc1cc(C(=O)Nc2cc3ccc(OC4CCCN(C)C4)c(C)c3oc2=O)ccc1O` (stereo not shown) [31c, KU-418, 4-Hydroxy-N-(8-methyl-7-(1-methylpiperidin-3-yloxy)-2-oxo-2H-chromen-3-yl)-3-(3-methylbut-2-enyl)benzamide], the IC50 [1, 8] is reported as 4690 ± 160 nM and the IC50 [2, 7] is reported as 10100 ± 170 nM.

`CC(C)=CCc1cc(C(=O)Nc2cc3ccc(OC4CCCNC4)c(C)c3oc2=O)ccc1O` (stereo not shown) [31d, KU-420, 4-Hydroxy-N-(8-methyl-2-oxo-7-(piperidin-3-yloxy)-2H-chromen-3-yl)-3-(3-methylbut-2-enyl)benzamide] showed an IC50 [1, 8] of 790 ± 110 nM and an IC50 [2, 7] of 2110 ± 580 nM.

With `CC(C)=CCc1cc(C(=O)Nc2cc3ccc(OCCN(C)C)c(C)c3oc2=O)ccc1O` [31e, KU-422, N-(7-(2-(Dimethylamino)ethoxy)-8-methyl-2-oxo-2H-chromen-3-yl)-4-hydroxy-3-(3-methylbut-2-enyl)benzamide] the IC50 [1, 8] was 9450 ± 220 nM and the IC50 [2, 7] was 52700 nM.

Work on `CC(C)=CCc1cc(C(=O)Nc2cc3ccc(OCCCN(C)C)c(C)c3oc2=O)ccc1O` [31f, KU-407, N-(7-(3-(Dimethylamino)propoxy)-8-methyl-2-oxo-2H-chromen-3-yl)-4-hydroxy-3-(3-methylbut-2-enyl)benzamide] yielded an IC50 [1, 8] of 440 ± 20 nM and an IC50 [2, 7] of 1350 ± 380 nM.

`CNCCOc1ccc2cc(NC(=O)c3ccc(O)c(CC=C(C)C)c3)c(=O)oc2c1C` [31g, KU-424, 4-Hydroxy-N-(8-methyl-7-(2-(methylamino)ethoxy)-2-oxo-2H-chromen-3-yl)-3-(3-methylbut-2-enyl)benzamide] gave an IC50 [1, 8] of 750 ± 120 nM and an IC50 [2, 7] of 1330 ± 10 nM.

Work on `Cc1c(OC2CCN(C)CC2)ccc2cc(NC(=O)c3cc4cc(Cl)ccc4[nH]3)c(=O)oc12` [KU-380] yielded an IC50 [1, 9] of 90 ± 30 nM and an IC50 [2, 10] of 350 ± 210 nM.

Work on `COc1cc2cc(NC(=O)c3cc4cc(Cl)ccc4[nH]3)c(=O)oc2c(C)c1OC1CCN(C)CC1` [KU-386] yielded an IC50 [1, 9] of 4950 ± 450 nM and an IC50 [2, 10] of 510 ± 110 nM.

`COc1cc2cc(NC(=O)c3cc4cc(Cl)ccc4[nH]3)c(=O)oc2c(C)c1OCCCN(C)C` [KU-395] was tested, and the IC50 [1, 9] was 1540 ± 150 nM and the IC50 [2, 10] was 500 ± 10 nM.

Compound `CC(C)=CCc1cc(C(=O)Nc2cc3ccc(OC4CCN(C)CC4)c(C)c3oc2=O)ccc1OCCN(C)C` [KU-456] has an IC50 [1, 8] of 23 nM and an IC50 [2, 7] of 510 nM.

`CC(C)=CCc1cc(C(=O)Nc2cc3ccc(OC4CCN(C)CC4)c(C)c3oc2=O)ccc1OCCCN(C)C` [KU-457] gave an IC50 [1, 8] of 90 nM and an IC50 [2, 7] of 350 ± 80 nM.
